Test results published in PubChem BioAssay (NCI).
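Step 1: Grow cells in 96-well plates. Step 2: Expose to compound for 48 hours at 5 concentrations. Step 3: Interpolate endpoints linearly; if unreached, use highest concentration. GI50 marks 50% less growth. Definition used: TGI = concentration required for complete inhibition of growth.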

Key:
Experiment in all cases: NCI-60 cell line screen, 48 h
[1] = tested on: MDA-MB-468 breast
[2] = tested on: MOLT-4 leukemia
[3] = tested on: MCF7 breast
[4] = tested on: SF-539 CNS
[5] = tested on: ACHN renal
[6] = tested on: HS 578T breast
[7] = tested on: EKVX NSCLC
[8] = tested on: A549 NSCLC
[9] = tested on: T-47D breast
[10] = tested on: K-562 leukemia
[11] = tested on: NCI-H522 lung
[12] = tested on: HT29 colon
[13] = tested on: SW-620 colon
[14] = tested on: SF-295 CNS
[15] = tested on: 786-0 renal
[16] = tested on: CCRF-CEM leukemia
[17] = tested on: IGROV1 ovarian
[18] = tested on: OVCAR-5 ovarian
[19] = tested on: OVCAR-4 ovarian
[20] = tested on: BT-549 breast
[21] = tested on: SF-268 CNS
[22] = tested on: LOX IMVI melanoma
[23] = tested on: OVCAR-8 ovarian
[24] = tested on: SN12C renal
[25] = tested on: KM12 colon
[26] = tested on: SK-MEL-28 melanoma
[27] = tested on: HL-60(TB) leukemia
[28] = tested on: UACC-257 melanoma
[29] = tested on: NCI/ADR-RES ovarian
[30] = tested on: MALME-3M melanoma
[31] = tested on: DU-145 prostate
[32] = tested on: HOP-92 NSCLC
[33] = tested on: HCT-116 colon
[34] = tested on: A498 renal
[35] = tested on: RXF 393 renal
[36] = tested on: TK-10 renal
[37] = tested on: PC-3 prostate
[38] = tested on: MDA-MB-435
[39] = tested on: M14 melanoma
[40] = tested on: HCT-15 colon
[41] = tested on: RPMI-8226 leukemia
[42] = tested on: OVCAR-3 ovarian
[43] = tested on: NCI-H23 lung
[44] = tested on: UACC-62 melanoma
[45] = tested on: COLO 205 colon
[46] = tested on: SNB-19 CNS
[47] = tested on: SR leukemia
[48] = tested on: NCI-H226 lung
[49] = tested on: HOP-62 NSCLC
[50] = tested on: CAKI-1 renal

COc1ccc(C(=O)c2cc(C)c(OC)c(C)c2)c(OC)c1N(C(=O)C(Cl)Cl)C(=O)C(Cl)Cl
GI50 [1]: 25.9 nM | TGI [1]: 92.6 nM

CCS(=O)(=O)c1ccc(OC)c(Nc2ncc(-c3cccc(OC)c3)o2)c1
GI50 [1]: 10500 nM | TGI [1]: > 25000 nM

CN(C)c1ccc(N)cc1
GI50 [1]: 2810 nM | TGI [1]: 8700 nM

COc1cc(NC(=O)c2cc(O)c(CC=C(C)C)c(O)c2)cc2c1O[C@]1(C)CC[C@@H](O)C(C)(C)[C@H]1C2
GI50 [1]: 3420 nM | TGI [1]: 19800 nM

COc1cc(C2=NN(C(C)=O)C(c3ccc(OC(C)=O)cc3OC(C)=O)O2)c(OC(C)=O)c2ccccc12 (stereo unspecified)
GI50 [1]: 1060 nM | TGI [1]: 6580 nM

O=C(CCl)Nc1ccc(Cl)cc1
GI50 [1]: 2340 nM | TGI [1]: 6280 nM

CC1CN1CC(O)C(O)CN1CC1C (stereo unspecified)
GI50 [1]: 278 nM | TGI [1]: 1680 nM

COc1cc2cc(C(=O)N3C[C@@H](CCl)c4c3cc(OC(=O)N3CCN(C)[C@@H]5CSSC[C@@H]53)c3ccccc43)[nH]c2c(OC)c1OC
GI50 [2]: 69.7 nM | TGI [2]: 1780 nM | GI50 [3]: 28.1 nM | TGI [3]: 12900 nM | GI50 [4]: 172 nM | TGI [4]: 477 nM | GI50 [5]: 28.2 nM | TGI [5]: 222 nM | GI50 [6]: 2260 nM | TGI [6]: 7040 nM | GI50 [7]: 230 nM | TGI [7]: 1810 nM | GI50 [8]: 180 nM | TGI [8]: > 100000 nM | GI50 [9]: 287 nM | TGI [9]: > 100000 nM | GI50 [10]: 397 nM | TGI [10]: > 100000 nM | GI50 [11]: 146 nM | TGI [11]: 531 nM | GI50 [12]: 226 nM | TGI [12]: 37300 nM | GI50 [13]: 264 nM | TGI [13]: > 100000 nM | GI50 [14]: 133 nM | TGI [14]: 474 nM | GI50 [15]: 197 nM | TGI [15]: 579 nM | GI50 [16]: 105 nM | TGI [16]: 1390 nM | GI50 [17]: 1530 nM | TGI [17]: > 100000 nM | GI50 [18]: 284 nM | TGI [18]: 1400 nM | GI50 [19]: 1620 nM | TGI [19]: > 100000 nM | GI50 [20]: 165 nM | TGI [20]: 593 nM | GI50 [21]: 175 nM | TGI [21]: 12200 nM | GI50 [22]: 165 nM | TGI [22]: 829 nM | GI50 [23]: 151 nM | TGI [23]: 2210 nM | GI50 [24]: 203 nM | TGI [24]: 31700 nM | GI50 [25]: 1100 nM | TGI [25]: 26700 nM | GI50 [26]: 261 nM | TGI [26]: 762 nM | GI50 [27]: 52 nM | TGI [27]: 640 nM | GI50 [28]: 501 nM | TGI [28]: 2990 nM | GI50 [29]: 148 nM | TGI [29]: 613 nM | GI50 [30]: 213 nM | TGI [30]: 719 nM | GI50 [31]: 62.6 nM | TGI [31]: > 100000 nM | GI50 [32]: 238 nM | TGI [32]: 809 nM | GI50 [33]: 187 nM | TGI [33]: > 100000 nM | GI50 [34]: 1230 nM | TGI [34]: 3880 nM | GI50 [35]: 132 nM | TGI [35]: 273 nM | GI50 [36]: 1290 nM | TGI [36]: > 100000 nM | GI50 [37]: 358 nM | TGI [37]: 13700 nM | GI50 [38]: 836 nM | TGI [38]: 2930 nM | GI50 [39]: 251 nM | TGI [39]: 1060 nM | GI50 [40]: 247 nM | TGI [40]: 11700 nM | GI50 [41]: 161 nM | TGI [41]: 569 nM | GI50 [42]: 489 nM | TGI [42]: 5540 nM | GI50 [43]: 45.4 nM | TGI [43]: 186 nM | GI50 [1]: 164 nM | TGI [1]: 392 nM | GI50 [44]: 147 nM | TGI [44]: 665 nM | GI50 [45]: 328 nM | TGI [45]: 1640 nM | GI50 [46]: 224 nM | TGI [46]: 6410 nM | GI50 [47]: 37.3 nM | TGI [47]: 299 nM | GI50 [48]: 1020 nM | TGI [48]: 7850 nM | GI50 [49]: 205 nM | TGI [49]: 925 nM | GI50 [50]: 248 nM | TGI [50]: > 100000 nM

Cc1cc(C)c(C(=O)CC(=O)c2cccnc2)c(C)c1
GI50 [1]: 8680 nM | TGI [1]: 49800 nM

Cc1ccc(C(=NN=C(N)N)c2ccc(C)cc2)cc1
GI50 [1]: 232 nM | TGI [1]: 750 nM

CCS(=O)(=O)c1ccc(OC)c(Nc2ncc(-c3cccc(C(C)=O)c3)o2)c1
GI50 [1]: 3460 nM | TGI [1]: > 25000 nM

CCOC(=O)Sc1ncnc2nc[nH]c12
GI50 [1]: 350 nM | TGI [1]: > 100000 nM

COc1cc(OC)c(/C=C/C(=O)c2c(OC)cccc2OC)c(OC)c1
GI50 [1]: 394 nM | TGI [1]: 3160 nM

COc1ccc(C(=O)COc2cccc(/C=C3\COc4ccc5ccccc5c4C3=O)c2)cc1
GI50 [1]: 2360 nM | TGI [1]: 12300 nM

O=C(c1cccc(O)c1O)c1cn(Cc2ccc(F)cc2)c2cccc(O)c12
GI50 [1]: 5460 nM | TGI [1]: 21700 nM

CCCCN=C(N)c1ccc(OCCSCCOc2ccc(C(N)=NCCCC)cc2)cc1
GI50 [1]: 360 nM | TGI [1]: 3870 nM

CCOC(=O)c1cc(/C(=N\O)c2cc(OC)c(OC)c(OC)c2)n2cc(C)cc(C)c12
GI50 [1]: 1460 nM | TGI [1]: 4790 nM

COc1ccc(OC)c(/C=C/C(=O)N/N=C/c2ccc(Cl)cc2)c1
GI50 [1]: 76.8 nM | TGI [1]: 363 nM

COC(=O)Nc1nc2ccc(Oc3ccc(NC(=O)Nc4ccccc4)cc3)cc2[nH]1
GI50 [1]: 56.1 nM | TGI [1]: 489 nM

CCN1C(=O)CNc2ncc(-c3ccc(-c4ncn[nH]4)nc3C)nc21
GI50 [1]: 196 nM | TGI [1]: 1170 nM

O=C(N/N=C/c1cccc(O)c1O)c1ccccc1
GI50 [1]: 1290 nM | TGI [1]: 11100 nM

NC(=S)N/N=C/c1ccc(OC(=O)COc2ccc(Cl)cc2)cn1
GI50 [1]: 2540 nM | TGI [1]: 9590 nM

CC/C=C\C[C@@H]1C/C=C2/C(=O)C=C[C@H]2C/C=C\CCCC(=O)O1
GI50 [1]: 976 nM | TGI [1]: 2580 nM

CC(C)c1ccc(C(=O)Nc2sc3c(c2C(N)=O)CCC(=O)C3)cc1
GI50 [1]: 453 nM | TGI [1]: 1810 nM

COc1cc[nH]c1/C=C1\C(=O)Nc2ccccc21
GI50 [1]: 1110 nM | TGI [1]: > 25000 nM

Nc1ncc(-c2cnn(CCO)c2)c2scc(-c3ccc(NC(=O)Nc4cccc(F)c4)cc3)c12
GI50 [1]: 443 nM | TGI [1]: 5660 nM

CCC#CC[C@H]1C/C=C2/C(=O)C=C[C@@H]2C/C=C\CCCC(=O)O1
GI50 [1]: 928 nM | TGI [1]: 5470 nM

O=C(Nc1ccc(Cl)cc1)c1cc(-c2ccc(F)cc2)c2sc(=O)[nH]c2n1
GI50 [1]: 687 nM | TGI [1]: 4970 nM

CCN(CC)c1ccc(C(=N)c2ccc(N(CC)CC)cc2)cc1
GI50 [1]: 312 nM | TGI [1]: 1430 nM
